Entries after “also recorded” stand apart in the source; their conditions may differ.
Legend:
[1] = Human pharmacokinetics: open-label, randomized relative bioavailability study of Compounds 1 and 3 (plasma total, unbound and iron bound Compound 2); type: in vivo; conditions: healthy adults, oral capsules; plasma Compound 2; relative to Compound 3, see Table 14
Experimental: The purpose of this Example is to characterize the pharmacokinetic profiles of Compound 1 (disodium salt) and its magnesium hydroxide salt counterpart, Compound 3:
This human study is part of an open-label, randomized, single dose, 3-period, relative bioavailability study in up to 28 healthy adults 18-65 years of age inclusive, investigating the pharmacokinetics, safety, and tolerability of Compounds 1 and 3. In this study, each study compound is administered as a single dose of 36.2 mg/kg/day or 18.1 mg/kg/day, respectively (as free acid), and as 2 doses of 36.2 mg/kg or 18.1 mg/kg, respectively (as free acid), given 12 hours apart. Table 13 provides dosages relative to free acid content.
The magnesium hydroxide salt (Compound 3) is administered as oral capsules in the following strengths: 50, 100, 200, 375 and 500 mg. The disodium salt (Compound 1) is administered as oral capsules in the following strengths: 54.1, 272.8 and 408.7 mg.
There will be 3 treatment periods in this study and 4 possible treatments. […]
Actual pharmacokinetic blood sample collection times versus time of dosing will be monitored. […]

[2] = Humidity exposure / comparative hygroscopicity study of solid forms (weight change, appearance, XRPD); type: physicochemical
[3] = Drying of Form A under vacuum at elevated temperature (weight loss, XRPD, HPLC/1H NMR); type: physicochemical
Experimental: Form A (1.0 g) was dried at 60° C. under reduced pressure for 24 h. During this time the sample decreased in weight by −7.3% w/w.
A sample of Form A was dried for 48 h under vacuum at 60° C. and reweighed. The material decreased in weight by 9.30% w/w.
The reactions conditions were repeated on a 1.0 g scale: a sample of Form A was dried for 24 hr under vacuum at 60° C. and reweighed. The material decreased in weight by 7.30% w/w. […] The material was allowed to cool to ambient temperature under vacuum before releasing the vacuum with nitrogen and transferring the Form D into a poly-tub under nitrogen.

[4] = Form inter-conversion by stirring in TBME/ethanol/water (20/5/1, v/v/v); type: physicochemical; conditions: TBME/ethanol/water (20/5/1, v/v/v) at 18-23° C. for 4 days
Experimental: A mixture of Forms A, B, C, and D (present in equal amounts) of Compound 1 was stirred in TBME/ethanol/water (20/5/1, v/v/v) at 18-23° C. for 4 days.
A reaction vessel was charged with a mixture of Forms A-D of Compound 1 (25 mg, 1.0 wt.). A solution of TBME/EtOH/water (20/5/1, 10 vol) was added, and was stirred at 18-23° C. for 4 days. The solid was isolated by filtration, washed with recycled mother liquors, and dried under vacuum under a N2 atmosphere.
A reaction vessel was charged with Form A of Compound 1 (25 mg, 1.0 wt.). A solution of TBME/EtOH/water (20/5/1, 10 vol) was added, and was stirred at 18-23° C. for 4 days. The solid was isolated by filtration, washed with recycled mother liquors, and dried under vacuum under a N2 atmosphere.
A reaction vessel was charged with Form B of Compound 1 (25 mg, 1.0 wt.). A solution of TBME/EtOH/water (20/5/1, 10 vol) was added, and was stirred at 18-23° C. for 4 days. The solid was isolated by filtration, washed with recycled mother liquors, and dried under vacuum under a N2 atmosphere.
A reaction vessel was charged with Form C of Compound 1 (25 mg, 1.0 wt.). A solution of TBME/EtOH/water (20/5/1, 10 vol) was added, and was stirred at 18-23° C. for 4 days. The solid was isolated by filtration, washed with recycled mother liquors, and dried under vacuum under a N2 atmosphere.
A reaction vessel was charged with Form D of Compound 1 (25 mg, 1.0 wt.). A solution of TBME/EtOH/water (20/5/1, 10 vol) was added, and was stirred at 18-23° C. for 4 days. The solid was isolated by filtration, washed with recycled mother liquors, and dried under vacuum under a N2 atmosphere.

[5] = Humidity exposure / comparative hygroscopicity study of solid forms (weight change, appearance, XRPD); type: physicochemical; conditions: for XRPD form: 48 hrs; for XRPD (final form): 18-23° C., 48 h
Experimental: X-Ray powder diffraction (XRPD) analysis was carried out using a Bruker D2 Phaser powder diffractometer employing a LynxEye detector. The samples underwent minimum preparation but, if necessary they were milled in a pestle and mortar before acquisition.
The samples were continuously spun during data collection and scanned using a step size of 0.02° two theta (2θ) between the range of 4°-40° two theta and a count time of 10 seconds per step. Data was processed using Bruker Diffrac. Suite.
Samples of Form D were placed in humidity chambers at 45%, 60% and 75% RH at 18-23° C. and their weight changes were monitored at intervals up to 48 h.
Accurately weighed samples of Form D were placed in humidity chambers at 45%, 60% and 75% R.H. and monitored for weight changes over 48 h.

[6] = 75% relative humidity (RH) at 15-25° C. for 1-2 days

## COCCOCCOCCOc1cccc(C2=N[C@@](C)(C(=O)[O-])CS2)c1[O-].[Na+].[Na+] [Compound 1, (S)-2-(2-hydroxy-3-(2-(2-(2-methoxyethoxy)ethoxy)ethoxy)phenyl)-4-methyl-4,5-dihydrothiazole-4-carboxylate disodium]
[1]
  AUC higher than Compound 3: ~22%
  Cmax higher than Compound 3: ~35%

## COCCOCCOCCOc1cccc(C2=N[C@@](C)(C(=O)[O-])CS2)c1[O-].[Na+].[Na+] [Form A, (S)-2-(2-hydroxy-3-(2-(2-(2-methoxyethoxy)ethoxy)ethoxy)phenyl)-4-methyl-4,5-dihydrothiazole-4-carboxylate disodium Form A polymorph]
[2]; 43% RH at 50° C. for 5 days
  Form after exposure to humidity: remained as Form A
[2]; [6]
  Form after exposure to humidity: remained as Form A
[3]; 40° C. under vacuum for 48 h
  Form after drying: partial transformation of Form A to Form D
[3]; 60° C. under vacuum for 24 hours
  Form after drying: converted to Form D; also recorded: converted into Form D
[3]; 60° C. under vacuum for 48 h
  Chemical stability on drying (HPLC and 1H NMR): decomposition had not occurred
  Decrease in weight on drying: 9.30 % w/w
  Form after drying (XRPD): Form D
[4]
  Output form after stirring in solvent: remained Form A

## COCCOCCOCCOc1cccc(C2=N[C@@](C)(C(=O)[O-])CS2)c1[O-].[Na+].[Na+] [Form B, (S)-2-(2-hydroxy-3-(2-(2-(2-methoxyethoxy)ethoxy)ethoxy)phenyl)-4-methyl-4,5-dihydrothiazole-4-carboxylate disodium Form B polymorph]
[2]; [6]
  Form after exposure to humidity: re-generated Form A
[4]
  Output form after stirring in solvent: converted into Form A

## COCCOCCOCCOc1cccc(C2=N[C@@](C)(C(=O)[O-])CS2)c1[O-].[Na+].[Na+] [Form C, (S)-2-(2-hydroxy-3-(2-(2-(2-methoxyethoxy)ethoxy)ethoxy)phenyl)-4-methyl-4,5-dihydrothiazole-4-carboxylate disodium Form C polymorph]
[2]; 75% RH at 15-25° C. for 22 h
  Form after exposure to humidity: re-generated Form A
  Weight gain on exposure to humidity: 18.5 % w/w
[4]
  Output form after stirring in solvent: converted into Form A

## COCCOCCOCCOc1cccc(C2=N[C@@](C)(C(=O)[O-])CS2)c1[O-].[Na+].[Na+] [Form D, (S)-2-(2-hydroxy-3-(2-(2-(2-methoxyethoxy)ethoxy)ethoxy)phenyl)-4-methyl-4,5-dihydrothiazole-4-carboxylate disodium Form D polymorph]
[2]; 43% RH, 18-23° C., 48 h
  XRPD (final form): Form A
[4]
  Output form after stirring in solvent: converted into Form A
[5]; 45% R.H.
  XRPD form: Form A
[5]; 60% R.H.
  XRPD form: Form A
[5]; 60% RH
  XRPD (final form): Form A
[5]; 75% R.H.
  XRPD form: Form A
[5]; 75% RH
  XRPD (final form): Form A
[5]; exposed to ≧43% relative humidity
  Form after exposure to humidity: reverts to Form A

From patent US9512095B2, “Polymorph forms of desazadesferrithiocin analogs” (Ferrokin Biosciences, Inc., priority 2013, dated 2016)
